Laboratory results from PubChem BioAssay AID1963981 (Molecular Pharmacology Branch, DTP, NCI, 2024).

Tested on: 354836-022-R-J1-PDC multicell spheroid viability
Experiment: Anticancer human tumor 354836-022-R-J1-PDC patient-derived head and neck squamous cell carcinoma cell line growth inhibition [PI3K]
Settings: for IC50: curve of first compound; for viability, T/C: stronger effect = lower value
In short: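 Combination activity was assessed by viability in multicellular tumor spheroids carrying HUVEC and MSC components. Agents were tested with PI3K inhibitors from a Cmax-based top dose (or 10 microM) downward in half-log increments.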

[1] = second compound 0.0316 µM, first compound 0.0316 µM
[2] = second compound 0.0316 µM, first compound 0.1 µM
[3] = second compound 0.0316 µM, first compound 0.316 µM
[4] = second compound 0.0316 µM, first compound 1 µM
[5] = second compound 0.0316 µM, first compound 3.16 µM
[6] = second compound 0.0316 µM, first compound 10 µM
[7] = second compound 0.1 µM, first compound 0.0316 µM
[8] = second compound 0.1 µM, first compound 0.1 µM
[9] = second compound 0.1 µM, first compound 0.316 µM
[10] = second compound 0.1 µM, first compound 1 µM
[11] = second compound 0.1 µM, first compound 3.16 µM
[12] = second compound 0.1 µM, first compound 10 µM
[13] = second compound 0.316 µM, first compound 0.0316 µM
[14] = second compound 0.316 µM, first compound 0.1 µM
[15] = second compound 0.316 µM, first compound 0.316 µM
[16] = second compound 0.316 µM, first compound 1 µM
[17] = second compound 0.316 µM, first compound 3.16 µM
[18] = second compound 0.316 µM, first compound 10 µM
[19] = second compound 1 µM, first compound 0.0316 µM
[20] = second compound 1 µM, first compound 0.1 µM
[21] = second compound 1 µM, first compound 0.316 µM
[22] = second compound 1 µM, first compound 1 µM
[23] = second compound 1 µM, first compound 3.16 µM
[24] = second compound 1 µM, first compound 10 µM
[25] = second compound 3.16 µM, first compound 0.0316 µM
[26] = second compound 3.16 µM, first compound 0.1 µM
[27] = second compound 10 µM, first compound 0.0316 µM
[28] = second compound 10 µM, first compound 0.1 µM
[29] = second compound 0.0316 µM, first compound 0.000316 µM
[30] = second compound 0.0316 µM, first compound 0.001 µM
[31] = second compound 0.0316 µM, first compound 0.00316 µM
[32] = second compound 0.0316 µM, first compound 0.01 µM
[33] = second compound 0.1 µM, first compound 0.000316 µM
[34] = second compound 0.1 µM, first compound 0.001 µM
[35] = second compound 0.1 µM, first compound 0.00316 µM
[36] = second compound 0.1 µM, first compound 0.01 µM
[37] = second compound 0.316 µM, first compound 0.000316 µM
[38] = second compound 0.316 µM, first compound 0.001 µM
[39] = second compound 0.316 µM, first compound 0.00316 µM
[40] = second compound 0.316 µM, first compound 0.01 µM
[41] = second compound 1 µM, first compound 0.000316 µM
[42] = second compound 1 µM, first compound 0.001 µM
[43] = second compound 1 µM, first compound 0.00316 µM
[44] = second compound 1 µM, first compound 0.01 µM
[45] = second compound 0.00316 µM, first compound 0.0316 µM
[46] = second compound 0.00316 µM, first compound 0.1 µM
[47] = second compound 0.01 µM, first compound 0.0316 µM
[48] = second compound 0.01 µM, first compound 0.1 µM
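Also: spheroids exposed to agents for seven days before the viability read.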

SMILES: Cn1nccc1Nc1nccc(-c2ccn(C(CO)c3ccc(Cl)c(F)c3)c(=O)c2)n1 (stereo not drawn) + Cc1nc(NC(=O)N2CCCC2C(N)=O)sc1-c1ccnc(C(C)(C)C(F)(F)F)c1
- IC50 (second compound 0.0316 µM): > 10000 nM
- IC50 (second compound 0.1 µM): > 10000 nM
- IC50 (second compound 0.316 µM): > 10000 nM
- IC50 (second compound 1 µM): > 10000 nM
- IC50 (second compound 3.16 µM): > 10000 nM
- IC50 (second compound 10 µM): < 31.6 nM
- viability, T/C [1]: 100%
- viability, T/C [2]: 91%
- viability, T/C [3]: 101%
- viability, T/C [4]: 92.5%
- viability, T/C [5]: 97.2%
- viability, T/C [6]: 95.1%
- viability, T/C [7]: 99.2%
- viability, T/C [8]: 92.5%
- viability, T/C [9]: 102%
- viability, T/C [10]: 88.7%
- viability, T/C [11]: 101%
- viability, T/C [12]: 91.3%
- viability, T/C [13]: 95%
- viability, T/C [14]: 91.3%
- viability, T/C [15]: 87.7%
- viability, T/C [16]: 89.3%
- viability, T/C [17]: 108%
- viability, T/C [18]: 101%
- viability, T/C [19]: 76.2%
- viability, T/C [20]: 89.7%
- viability, T/C [21]: 77.9%
- viability, T/C [22]: 79.1%
- viability, T/C [23]: 100%
- viability, T/C [24]: 90.3%
- viability, T/C [25]: 58.4%
- viability, T/C [26]: 67.5%
- viability, T/C (second compound 3.16 µM, first compound 0.316 µM): 61.9%
- viability, T/C (second compound 3.16 µM, first compound 1 µM): 61.8%
- viability, T/C (second compound 3.16 µM, first compound 3.16 µM): 72.4%
- viability, T/C (second compound 3.16 µM, first compound 10 µM): 50.1%
- viability, T/C [27]: 35.6%
- viability, T/C [28]: 41.5%
- viability, T/C (second compound 10 µM, first compound 0.316 µM): 31.4%
- viability, T/C (second compound 10 µM, first compound 1 µM): 33.7%
- viability, T/C (second compound 10 µM, first compound 3.16 µM): 25.8%
- viability, T/C (second compound 10 µM, first compound 10 µM): 14.7%

SMILES: CC(C)n1nc(-c2ccc3oc(N)nc3c2)c2c(N)ncnc21 + CC(Nc1ncnc2nc[nH]c12)c1cc2cccc(Cl)c2c(=O)n1-c1ccccc1
- IC50 (second compound 0.0316 µM): 15.5 nM
- IC50 (second compound 0.1 µM): 21.7 nM
- IC50 (second compound 0.316 µM): 16.4 nM
- IC50 (second compound 1 µM): 15.5 nM
- IC50 (second compound 3.16 µM): 19.3 nM
- IC50 (second compound 10 µM): 16.8 nM
- viability, T/C [29]: 88.2%
- viability, T/C [30]: 96.5%
- viability, T/C [31]: 79.9%
- viability, T/C [32]: 57%
- viability, T/C [1]: 35.3%
- viability, T/C [2]: 5.53%
- viability, T/C [33]: 97.8%
- viability, T/C [34]: 102%
- viability, T/C [35]: 81.1%
- viability, T/C [36]: 86.3%
- viability, T/C [7]: 32.8%
- viability, T/C [8]: 4.44%
- viability, T/C [37]: 92.6%
- viability, T/C [38]: 101%
- viability, T/C [39]: 80.7%
- viability, T/C [40]: 61.2%
- viability, T/C [13]: 34.9%
- viability, T/C [14]: 6.09%
- viability, T/C [41]: 113%
- viability, T/C [42]: 98.2%
- viability, T/C [43]: 92.7%
- viability, T/C [44]: 59.5%
- viability, T/C [19]: 31.6%
- viability, T/C [20]: 5.81%
- viability, T/C (second compound 3.16 µM, first compound 0.000316 µM): 105%
- viability, T/C (second compound 3.16 µM, first compound 0.001 µM): 99%
- viability, T/C (second compound 3.16 µM, first compound 0.00316 µM): 73.1%
- viability, T/C (second compound 3.16 µM, first compound 0.01 µM): 68.1%
- viability, T/C [25]: 40.9%
- viability, T/C [26]: 5.66%
- viability, T/C (second compound 10 µM, first compound 0.000316 µM): 95.5%
- viability, T/C (second compound 10 µM, first compound 0.001 µM): 101%
- viability, T/C (second compound 10 µM, first compound 0.00316 µM): 89.2%
- viability, T/C (second compound 10 µM, first compound 0.01 µM): 62.7%
- viability, T/C [27]: 33.3%
- viability, T/C [28]: 6.25%

SMILES: Cn1ncnc1[C@H]1c2n[nH]c(=O)c3cc(F)cc(c23)N[C@@H]1c1ccc(F)cc1 + CC(Nc1ccc2c(c1)OCCn1cc(N3C(=O)OCC3C(F)F)nc1-2)C(N)=O
- IC50 (second compound 0.00316 µM): > 100 nM
- IC50 (second compound 0.01 µM): > 100 nM
- IC50 (second compound 0.0316 µM): > 100 nM
- IC50 (second compound 0.1 µM): > 100 nM
- IC50 (second compound 0.316 µM): > 100 nM
- IC50 (second compound 1 µM): > 100 nM
- viability, T/C (second compound 0.00316 µM, first compound 0.000316 µM): 87.4%
- viability, T/C (second compound 0.00316 µM, first compound 0.001 µM): 97.1%
- viability, T/C (second compound 0.00316 µM, first compound 0.00316 µM): 91.6%
- viability, T/C (second compound 0.00316 µM, first compound 0.01 µM): 101%
- viability, T/C [45]: 120%
- viability, T/C [46]: 89.8%
- viability, T/C (second compound 0.01 µM, first compound 0.000316 µM): 88.4%
- viability, T/C (second compound 0.01 µM, first compound 0.001 µM): 83.4%
- viability, T/C (second compound 0.01 µM, first compound 0.00316 µM): 105%
- viability, T/C (second compound 0.01 µM, first compound 0.01 µM): 92.6%
- viability, T/C [47]: 88.3%
- viability, T/C [48]: 84.3%
- viability, T/C [29]: 83%
- viability, T/C [30]: 89.8%
- viability, T/C [31]: 95%
- viability, T/C [32]: 111%
- viability, T/C [1]: 101%
- viability, T/C [2]: 75.5%
- viability, T/C [33]: 87%
- viability, T/C [34]: 104%
- viability, T/C [35]: 89.9%
- viability, T/C [36]: 89.1%
- viability, T/C [7]: 97.8%
- viability, T/C [8]: 70.3%
- viability, T/C [37]: 69.1%
- viability, T/C [38]: 81.8%
- viability, T/C [39]: 74.7%
- viability, T/C [40]: 72.6%
- viability, T/C [13]: 78.8%
- viability, T/C [14]: 60.4%
- viability, T/C [41]: 58%
- viability, T/C [42]: 63%
- viability, T/C [43]: 61.8%
- viability, T/C [44]: 56.8%
- viability, T/C [19]: 71.9%
- viability, T/C [20]: 53.4%

SMILES: CC(Cn1ccc(-c2ccc(C#N)c(Cl)c2)n1)NC(=O)c1cc(C(C)O)[nH]n1 (stereo not drawn) + COc1c(OCCCN2CCOCC2)ccc2c3n(c(=NC(=O)c4cnc(N)nc4)nc12)CCN3
- IC50 (second compound 0.00316 µM): > 10000 nM
- IC50 (second compound 0.01 µM): > 10000 nM
- IC50 (second compound 0.0316 µM): > 10000 nM
- IC50 (second compound 0.1 µM): < 31.6 nM
- IC50 (second compound 0.316 µM): < 31.6 nM
- IC50 (second compound 1 µM): < 31.6 nM
- viability, T/C [45]: 119%
- viability, T/C [46]: 99.5%
- viability, T/C (second compound 0.00316 µM, first compound 0.316 µM): 106%
- viability, T/C (second compound 0.00316 µM, first compound 1 µM): 104%
- viability, T/C (second compound 0.00316 µM, first compound 3.16 µM): 102%
- viability, T/C (second compound 0.00316 µM, first compound 10 µM): 86.3%
- viability, T/C [47]: 98.8%
- viability, T/C [48]: 104%
- viability, T/C (second compound 0.01 µM, first compound 0.316 µM): 92.5%
- viability, T/C (second compound 0.01 µM, first compound 1 µM): 113%
- viability, T/C (second compound 0.01 µM, first compound 3.16 µM): 105%
- viability, T/C (second compound 0.01 µM, first compound 10 µM): 80%
- viability, T/C [1]: 69.6%
- viability, T/C [2]: 82.7%
- viability, T/C [3]: 85.2%
- viability, T/C [4]: 86.9%
- viability, T/C [5]: 88.5%
- viability, T/C [6]: 67.5%
- viability, T/C [7]: 48.4%
- viability, T/C [8]: 52.5%
- viability, T/C [9]: 52%
- viability, T/C [10]: 57.1%
- viability, T/C [11]: 58.1%
- viability, T/C [12]: 51.9%
- viability, T/C [13]: 11.8%
- viability, T/C [14]: 18.3%
- viability, T/C [15]: 15.1%
- viability, T/C [16]: 20.9%
- viability, T/C [17]: 15.2%
- viability, T/C [18]: 18.2%
- viability, T/C [19]: 2.74%
- viability, T/C [20]: 1.7%
- viability, T/C [21]: 1.89%
- viability, T/C [22]: 2.26%
- viability, T/C [23]: 2.15%
- viability, T/C [24]: 2.19%
